“And” between values parts separate entries of the source, which are not always exact repeats. Equal entries are not always repeated. The source made the active and inactive calls. The rule behind the calls is not given here.

Data set [1] is described as follows: Prodrug conversion in ICR mouse assessed as Cmax of 4-((4-(5-chloro-2-fluoro-6-((3-hydroxypropyl)amino)pyridin-3-yl)-1-oxophthalazin-2(1H)-yl)methyl)benzonitrile metabolite at 20 mg/kg, po measured for 24 hrs by LC-MS/MS analysis. Format: ADME, organism-based. The conditions noted are these: in vivo.
Data set [2] can be described thus: Prodrug conversion in ICR mouse assessed as AUClast of 4-((4-(5-chloro-2-fluoro-6-((3-hydroxypropyl)amino)pyridin-3-yl)-1-oxophthalazin-2(1H)-yl)methyl)benzonitrile metabolite at 20 mg/kg, po measured for 24 hrs by LC-MS/MS analysis. Format: ADME, organism-based. The note with it: in vivo.
Data set [3] is described as follows: Prodrug conversion in ICR mouse assessed as Cmax of 3-((3-chloro-5-(3-(4-cyanobenzyl)-4-oxo-3,4-dihydrophthalazin-1-yl)-6-fluoropyridin-2-yl)amino)propanoic acid metabolite at 20 mg/kg, po measured for 24 hrs by LC-MS/MS analysis. The note with it: in vivo. Format: ADME, organism-based.
The nature of data set [4]: Prodrug conversion in ICR mouse assessed as AUClast of 3-((3-chloro-5-(3-(4-cyanobenzyl)-4-oxo-3,4-dihydrophthalazin-1-yl)-6-fluoropyridin-2-yl)amino)propanoic acid metabolite at 20 mg/kg, po measured for 24 hrs by LC-MS/MS analysis. The conditions noted are these: in vivo. Format: ADME, organism-based.
Data set [5] in a line: Half life in ICR mouse at 20 mg/kg, po measured for 24 hrs byb LC-MS/MS analysis. The format is ADME, organism-based. The conditions noted are these: in vivo.
Data set [6] in a line: Tmax in ICR mouse at 20 mg/kg, po measured for 24 hrs byb LC-MS/MS analysis. Format: ADME, organism-based. The conditions noted are these: in vivo.
Data set [7] in a line: Cmax in ICR mouse at 20 mg/kg, po measured for 24 hrs byb LC-MS/MS analysis. Format: ADME, organism-based. The note with it: in vivo.
Data set [8] can be described thus: AUClast in ICR mouse at 20 mg/kg, po measured for 24 hrs byb LC-MS/MS analysis. Format: ADME, organism-based. The conditions noted are these: in vivo.
The nature of data set [9]: Prodrug conversion in ICR mouse assessed as Tmax of 3-((3-chloro-5-(3-(4-cyanobenzyl)-4-oxo-3,4-dihydrophthalazin-1-yl)-6-fluoropyridin-2-yl)amino)propanoic acid metabolite at 20 mg/kg, po measured for 24 hrs by LC-MS/MS analysis. The format is ADME, organism-based. The conditions noted are these: in vivo.
Data set [10] can be described thus: Cytotoxicity against human HepG2.2.15 cells harboring HBV genome incubated for 8 days by MTT assay. The conditions noted are these: time 8 day. The format is toxicity, cell-based, HepG2 2.2.15.
For data set [11], the system named is HepG2.2.15. Description: Inhibition of HBeAg secretion in human HepG2.2.15 cells harboring HBV genome incubated for 8 days. The note with it: Hepatitis B virus, time 8.0 day. The format is functional, cell-based.
The subject of data set [12] is HepG2.2.15. The data set is described as follows: Inhibition of HBsAg secretion in human HepG2.2.15 cells harboring HBV genome incubated for 8 days. Format: functional, cell-based. The conditions noted are these: Hepatitis B virus, time 8.0 day.
Data set [13] relates to Hepatitis B virus. The data set is described as follows: Antiviral activity against HBV in human HepG2.2.15 cells harboring HBV genome assessed as reduction in HBV rcDNA incubated for 8 days by Southern blot analysis. Format: functional, organism-based. The conditions noted are these: dose <= 800.0 nM, time 8.0 day.
Data set [14] has as its system Hepatitis B virus. The data set is described as follows: Antiviral activity against HBV in human HepG2.2.15 cells harboring HBV genome assessed as reduction in HBV ssDNA incubated for 8 days by Southern blot analysis. Format: functional, organism-based. The note with it: dose <= 800.0 nM, time 8.0 day.
Data set [15] deals with Hepatitis B virus. Description: Antiviral activity against HBV in human HepG2.2.15 cells harboring HBV genome assessed as formation of fast-migrating capsids lacking capsid-associated HBV DNA upto 80 nM by native agarose gel electrophoresis. Format: functional, organism-based.
Data set [16] can be described thus: Prodrug conversion in ICR mouse assessed as half life of 4-((4-(5-chloro-2-fluoro-6-((3-hydroxypropyl)amino)pyridin-3-yl)-1-oxophthalazin-2(1H)-yl)methyl)benzonitrile metabolite at 20 mg/kg, po measured for 24 hrs by LC-MS/MS analysis. Format: ADME, organism-based. The conditions noted are these: in vivo.
The nature of data set [17]: Prodrug conversion in ICR mouse assessed as Tmax of 4-((4-(5-chloro-2-fluoro-6-((3-hydroxypropyl)amino)pyridin-3-yl)-1-oxophthalazin-2(1H)-yl)methyl)benzonitrile metabolite at 20 mg/kg, po measured for 24 hrs by LC-MS/MS analysis. The note with it: in vivo. The format is ADME, organism-based.
Data set [18] is described as follows: Prodrug conversion in ICR mouse assessed as half life of 3-((3-chloro-5-(3-(4-cyanobenzyl)-4-oxo-3,4-dihydrophthalazin-1-yl)-6-fluoropyridin-2-yl)amino)propanoic acid metabolite at 20 mg/kg, po measured for 24 hrs by LC-MS/MS analysis. The format is ADME, organism-based. The conditions noted are these: in vivo.
Data set [19] relates to Hepatitis B virus. Description: Antiviral activity against HBV in Balb/c mouse model infected with adeno-associated virus harbouring HBV 1.3 genome assessed as reduction in serum HBV DNA administered orally twice daily for 4 weeks by real-time PCR analysis. The format is functional, organism-based. The note with it: dose 25-75 mg/kg, route po.
Data set [20] deals with Hepatitis B virus. Description: Antiviral activity against HBV in Balb/c mouse model infected with adeno-associated virus harbouring HBV 1.3 genome assessed as reduction in intrahepatic HBV DNA administered orally twice daily for 4 weeks by Southern blot analysis. The conditions noted are these: dose 50-75 mg/kg, route po. The format is functional, organism-based.
The subject of data set [21] is Hepatitis B virus. Description: Antiviral activity against HBV in Balb/c mouse model infected with adeno-associated virus harbouring HBV 1.3 genome assessed as reduction in intrahepatic HBcAg level administered orally twice daily for 4 weeks by Western blot analysis. The format is functional, organism-based. The conditions noted are these: dose 50-75 mg/kg, route po.

The test system of data set [22] is Hepatitis B virus. Description: Antiviral activity against HBV in Balb/c mouse model infected with adeno-associated virus harbouring HBV 1.3 genome assessed as reduction in cytoplasmic HBcAg level at 50 to 75 mg/kg, po bid for 4 weeks by IHC analysis. The format is functional, organism-based. The conditions noted are these: dose 50-75 mg/kg.
A short description of data set [23]: Toxicity in Balb/c mouse model infected with adeno-associated virus harbouring HBV 1.3 genome at 100 mg/kg, po bid. Format: organism-based. The conditions noted are these: in vivo.
Data set [24] concerns Hepatitis B virus. The data set is described as follows: Antiviral activity against HBV in Balb/c mouse model infected with adeno-associated virus harbouring HBV 1.3 genome assessed as reduction in plasma HBV DNA at 100 mg/kg, po bid for 7 weeks followed by drug removal measured after 8 weeks by real-time PCR analysis. The format is functional, organism-based.
The test system of data set [25] is Hepatitis B virus. Description: Antiviral activity against HBV in Balb/c mouse model infected with adeno-associated virus harbouring HBV 1.3 genome assessed as reduction in plasma HBsAg level at 100 mg/kg, po bid for 7 weeks followed by drug removal measured after 8 weeks by chemiluminescence immunoassay. The format is functional, organism-based.
The subject of data set [26] is Hepatitis B virus. The data set is described as follows: Antiviral activity against HBV in Balb/c mouse model infected with adeno-associated virus harbouring HBV 1.3 genome assessed as reduction in plasma HBeAg level at 100 mg/kg, po bid for 7 weeks followed by drug removal measured after 8 weeks by chemiluminescence immunoassay. The format is functional, organism-based.

Data set [27] relates to Hepatitis B virus. The data set is described as follows: Antiviral activity against HBV in human HepG2.2.15 cells harboring HBV genome assessed as reduction in HBV DNA incubated for 8 days by real-time PCR analysis. The format is functional, organism-based.
In data set [28] the test system is Hepatitis B virus. Description: Antiviral activity against HBV in mouse model infected with adeno-associated virus harbouring HBV genome assessed as log reduction in HBV DNA at 20 mg/kg, po qd for 8 weeks. The format is functional.
Data set [29] concerns Hepatitis B virus. Description: Antiviral activity against HBV in mouse model infected with adeno-associated virus harbouring HBV genome assessed as log reduction in HBsAg at 20 mg/kg, po qd for 8 weeks. Format: functional.
For data set [30], the system named is Hepatitis B virus. The data set is described as follows: Antiviral activity against HBV in mouse model infected with adeno-associated virus harbouring HBV genome assessed as log reduction in HBeAg at 20 mg/kg, po qd for 8 weeks. The format is functional.
Data set [31] relates to Hepatitis B virus. Description: Antiviral activity against HBV in Balb/c mouse model infected with adeno-associated virus harbouring HBV 1.3 genome assessed as reduction in intrahepatic HBV DNA at 1 mg/kg, po qd for 4 weeks by Southern blot analysis. The format is functional, organism-based.
The test system of data set [32] is Mus musculus. The data set is described as follows: Effect on intrahepatic HBcAg expression in Balb/c mouse model infected with adeno-associated virus harbouring HBV 1.3 genome at 1 mg/kg, po qd for 4 weeks by Western blot analysis. Format: functional, organism-based.
For data set [33], the system named is Hepatitis B virus. The data set is described as follows: Antiviral activity against HBV in Balb/c mouse model infected with adeno-associated virus harbouring HBV 1.3 genome assessed as reduction in plasma HBV DNA at 1 mg/kg, po qd for 7 weeks followed by drug removal measured after 8 weeks by real-time PCR analysis. Format: functional, organism-based.
Data set [34] has as its system Mus musculus. The data set is described as follows: Effect on HBsAg expression in Balb/c mouse model infected with adeno-associated virus harbouring HBV 1.3 genome at 1 mg/kg, po qd for 7 weeks followed by drug removal measured after 8 weeks by chemiluminescence immunoassay. The format is functional, organism-based.
Data set [35] concerns Mus musculus. Description: Effect on HBeAg expression in Balb/c mouse model infected with adeno-associated virus harbouring HBV 1.3 genome at 1 mg/kg, po qd for 7 weeks followed by drug removal measured after 8 weeks by chemiluminescence immunoassay. The format is functional, organism-based.

For the molecule `CC(C)OC(=O)[C@@H](C)N[P@](=O)(OCCCNc1nc(F)c(-c2nn(Cc3ccc(C#N)cc3)c(=O)c3ccccc23)cc1Cl)Oc1ccccc1` (single isomer, unassigned), the Cmax in data set [1] turned out to be 48.2 ng/mL; in data set [3], 321 ng/mL. The figures for the AUClast in data set [2] and in [4] were 186 ng·h/mL and 2727 ng·h/mL, respectively.
Regarding `N#Cc1ccc(Cn2nc(-c3cc(Cl)c(NCCCO)nc3F)c3ccccc3c2=O)cc1`, the half-life in data set [5] is 0.99 h. For the same molecule, the Tmax in data set [6] came to 2 h; in [9], 2.67 h. The Cmax in data set [7] is 27 ng/mL; in data set [3], 62.2 ng/mL. This molecule also gave an area under the curve AUC(0-t) at 24 h in data set [8] of 61.4 ng·h/mL. Moreover, in [4], the AUClast turned out to be 498 ng·h/mL. In addition, the CC50 at 192 h in data set [10] is greater than 100000 nM. The inhibition result with HepG2.2.15 [11] and in the data set with HepG2.2.15 [12] was “inactive” throughout. Moreover, the Activity result with Hepatitis B virus [13] and in the data set on Hepatitis B virus [14] was “Dose-Dependent Effect” throughout. The outcome in the data set with Hepatitis B virus [15] was Active.
For the molecule `CC(C)[C@H](N)C(=O)OCCCNc1nc(F)c(-c2nn(Cc3ccc(C#N)cc3)c(=O)c3ccccc23)cc1Cl`, the t1/2 stood at 2.32 h in [16] and 2.85 h in [18]. Moreover, the Tmax in data set [17] was 0.42 h; in data set [9], 1.67 h. For the same molecule, the Cmax in data set [1] was determined as 1065 ng/mL; in data set [3], 3729 ng/mL. Further, the AUClast turned out to be 2296 ng·h/mL in [2] and 13560 ng·h/mL in data set [4]. For the same molecule, the CC50 at 192 h in [10] stood at 63100 nM. In addition, the inhibition result with HepG2.2.15 [11] and in the data set on HepG2.2.15 [12] was “inactive” throughout. Also, the Activity entry in the data set on Hepatitis B virus [13], in the data set on Hepatitis B virus [14], in the data set on Hepatitis B virus [19], in the data set with Hepatitis B virus [20], in the data set with Hepatitis B virus [21] and in the data set with Hepatitis B virus [22] was “Dose-Dependent Effect” throughout. Also, the Activity entry in data set [23] is listed as “Non-Toxic”. Also, the result in the data set on Hepatitis B virus [15], with Hepatitis B virus [24], in the data set with Hepatitis B virus [25] and in the data set on Hepatitis B virus [26] was Active.
For the molecule `N#Cc1ccc(Cn2nc(-c3cc(Cl)c(NCCC(=O)O)nc3F)c3ccccc3c2=O)cc1`, the EC50 with Hepatitis B virus [27] is 1290 nM and 170 nM. The molecule further returned a CC50 at 192 h in [10] greater than 100000 nM. The inhibition result in the data set with HepG2.2.15 [11] and in the data set on HepG2.2.15 [12] was “inactive” in each case. Further, the Activity entry with Hepatitis B virus [13] and in the data set with Hepatitis B virus [14] was “Dose-Dependent Effect” in each case. Further, the result in the data set with Hepatitis B virus [15] was Active.
Take `CCOC(=O)C1=C(CN2CCN3C(=O)N(CC(C)(C)C(=O)O)C[C@@H]3C2)N=C(c2nccs2)N[C@H]1c1cccc(F)c1C` [LINVENCORVIR]: the entries for the “log(activity)” value in the data set with Hepatitis B virus [28], in the data set on Hepatitis B virus [29] and with Hepatitis B virus [30] were 3, 2.4 and 1.5, respectively.
For `C=C1[C@H](CO)[C@@H](O)C[C@@H]1n1cnc2c(=O)[nH]c(N)nc21` [ENTECAVIR ANHYDROUS], the CC50 at 192 h in data set [10] is greater than 1000 nM. The result with Hepatitis B virus [31] and in the data set with Hepatitis B virus [33] was Active. Moreover, the result with Mus musculus [32], with Mus musculus [34] and with Mus musculus [35] was inactive.

These data come from ChEMBL document CHEMBL5620361, “A prodrug of the capsid assembly modulator improved druggability and lowing HBsAg and HBeAg for the treatment of chronic hepatitis B” (Eur J Med Chem, 2023).
